Source: paper PMC4428838, “Optimization of Invasion-Specific Effects of Betulin Derivatives on Prostate Cancer Cells through Lead Development” (PLoS ONE, 2015)

What was measured:
Type in all cases: cell-based
PC-3 cells = test: Primary 3D screen in Matrigel ECM, morphometric image analysis (AMIDA) of invasion, growth and cell death; settings: PC-3 in 3D Matrigel; for anti-invasive effects in 3D culture (in words): 0.03-1 μM
Experimental: Three standard of care compounds widely used against PrCa were added as controls; namely, the androgen receptor antagonist enzalutamide (MDV3100), the C17α-hydroxylase/C17,20-lyase inhibitor abiraterone (Zytiga), and the classic mitotic inhibitor paclitaxel. Treatments started at day 4, when well-differentiated round acini were established.
The live 3D cell cultures were then stained with reactive dyes Calcein AM to detect living, and ethidium homodimer to detect dead cells. Images (Fig 4A) were acquired with confocal microscope and image data were analyzed with the AMIDA software. The principles of morphometric image analysis are briefly outlined in S2 Fig.
Fig 4 Primary 3D screen. PC-3 cells were cultured in 3D Matrigel ECM for 4 days and treated for 6 days with 25 betulin derivatives (from 2D high throughput screens), DMSO/vehicle control, and three reference compounds. A) Representative maximum intensity projections of confocal microscope stack images for selected compound treatments at 300 nM concentration (5× objective, scale 100 μm). B) Three graphs showing the relative impact on three morphometric parameters for 7 betulin derivatives, DMSO control, and one control compound (paclitaxel). […] C) Hierarchical clustering was done using three morphological parameters derived from PC3 organoids: spheroid size (area), complexity and the number of dead cells. D) Wound healing curves of the two betulin derivatives 4 and 20, highlighting the 50% cut-off level (orange dashed line).
Next, statistical analyses were performed to interpret the complex image data (Fig 4B and 4C). For simplicity, we focused on only three, basic morphologic parameters from the multiparametric AMIDA readout (Fig 4B): 1) Area (indicating growth of organoids), 2) structural Complexity (as a measure of the intensity of invasion), and 3) Relative Area of dead cells within organoids (red signal as a measure of cytoxicity or apoptosis). Area (Size of organoids; Fig 4B, upper panel) was measured as the number of pixels within a segmented structure. […] Shape Complexity (Fig 4B, middle panel) was obtained using the structure size (area) and perimeter (number of border pixels). The more regular the shape of an organoid, the closer it is to a perfect circle, thus minimizing the perimeter relative to object size. […] Deviations from this average (residuals) were interpreted as a measure for the shape complexity of organoids. As a logical lower limit for this measure (represented by a perfect circle), we adjusted the intercept (height level) of the regression line to render all returned residuals as positive numbers.
All 3D cultures were done in growth factor-free Matrigel Basement-membrane Matrix (Corning Inc., New York, NY, USA) using 96-well Angiogenesis μ-plates (ibidi GmbH, Munich, Germany) as described before.[38] “Sandwich” assays in short: bottom wells of cooled Angiogenesis plates were filled with 10 μL 4 mg/mL Matrigel, centrifuged for 20 min 200 g and incubated at 37°C temperature for approximately 30–60 min or until the ECM had polymerized. 1,000–1,500 cells were mixed in 2 mg/mL ECM-medium, and 20 μL of cell suspension was added in each well. The plates were centrifuged for 10 min at 100 g, or until the cells had settled on top of the lower ECM. Finally, the outer wells and side reservoirs were filled with water for humidification, and the culture plates placed into the incubator for 3–4 h or overnight. The following day, 60 μL of cell culture medium were added; refreshed every third day by carefully aspirating the medium.

LAPC-4 = test: Secondary 3D screen (spheroid size, complexity, cell death); settings: yellow and red clusters
Source text: Next, the 25 selected betulin derivatives depicted in Figs 1–3 including control compounds were again thoroughly tested across the same panel of prostate-derived cell lines already used in the preliminary, 2D high-throughput screen. The resulting dendrograms were either generated separately for each cell line (S4 Fig), combined into a single dendrogram (Fig 5A), or shown as reduced organoid sizes (area; Fig 5B).
Fig 5 Secondary 3D screens. Experimental betulin derivatives and control compounds were tested across a panel of prostate cancer lines (LNCaP, LAPC-4) and non-transformed, prostate epithelial cells (EP156T) in 3D culture. A) The dendrogram is based on three main morphological parameters and combines all data from primary and secondary 3D screens. […] B) Boxplots showing the impact of selected compounds on spheroid size (Area). Data scaling: as described in Fig 4 C) Effects of all betulin derivatives and control compounds on cell death (number of dead cells).
All 3D cultures were done in growth factor-free Matrigel Basement-membrane Matrix (Corning Inc., New York, NY, USA) using 96-well Angiogenesis μ-plates (ibidi GmbH, Munich, Germany) as described before.[38] “Sandwich” assays in short: bottom wells of cooled Angiogenesis plates were filled with 10 μL 4 mg/mL Matrigel, centrifuged for 20 min 200 g and incubated at 37°C temperature for approximately 30–60 min or until the ECM had polymerized. 1,000–1,500 cells were mixed in 2 mg/mL ECM-medium, and 20 μL of cell suspension was added in each well. The plates were centrifuged for 10 min at 100 g, or until the cells had settled on top of the lower ECM. Finally, the outer wells and side reservoirs were filled with water for humidification, and the culture plates placed into the incubator for 3–4 h or overnight. The following day, 60 μL of cell culture medium were added; refreshed every third day by carefully aspirating the medium. This “sandwich” setting allows almost unifocal alignment of cells and 3D structures in a single optical plane, thus reducing the time required for confocal stack imaging.
All control compounds were purchased from Selleck (Munich, Germany), except for staurosporine (Sigma-Aldrich, St. Louis, MO, USA) and Y-27632 (Tocris, Bristol, UK) and dissolved in dimethyl sulfoxide (DMSO) as a vehicle at 10 mM. In the primary and secondary 3D screens, experimental and control compound exposures were performed in triplicates. Four concentrations for each compound were applied (0.03, 0.1, 0.3 and 1 μM). Compound treatments were initiated four days after cell embedding, and continued for six days after which spheroids were stained and imaged.
Supplementary file pone.0126111.s004.eps: S4 Fig Secondary screens. Dendrograms for A) LNCaP, B) LAPC-4, and C) Ep156T betulin screens in 3D culture have been constructed using three main read-outs: spheroid size, spheroid complexity, and cell death. […] (EPS) Click here for additional data file.

PC3 cells = test: Cell morphology and actin cytoskeleton in 2D monolayer culture; settings: PC3, 2D, 72h
Experimental: As a control, we also tested morphologies treated with the same panel of anti-invasive compounds 4, 5, 6, 16 and 20 as well as betulin (1) on PC3 cells grown in 2D monolayer cultures (S9 Fig).
Supplementary file pone.0126111.s009.tif: S9 Fig Morphologies of PC-3, LNCaP and Ep156T cells in 2D monolayer culture, exposed 72h to selected betulin derivatives. Actin cytoskeleton (filamentous or F- actin) is stained green (LifeAct), nuclei with a red dye (confocal microscope images, 40× objective, scale bar shown for each panel on the right lower corner). (TIF) Click here for additional data file.

PC-3 = test: Wound healing assay in 2D monolayer culture (IncuCyte); settings: example for inactive derivatives
Experimental: Cells were cultured on ImageLock plates (Essen Bioscience, Ann Arbor, MI, USA) until fully confluent and scratched with a WoundMaker instrument (Essen Bioscience). All detached cells were removed by aspiration and medium supplemented with experimental compounds was added. Wound closure was monitored and quantified with the IncuCyte live-cell imager (Essen Bioscience).
A) Graph showing the transition of PC-3 spheroids from symmetrical acini to irregular invasive structures over 6 days, as measured by general symmetry (roundness %). […] B) Conventional wound healing assay performed in monolayer culture over a period of 64 hours. Wound closure is measured as relative wound density i.e. percentage of original wound area reclaimed by migrating cells. […] (EPS) Click here for additional data file.

## C=C(C)[C@@H]1CC[C@]2(C(=O)NCCC)CC[C@]3(C)C(CCC4[C@@]5(C)CCC(=O)C(C)(C)C5CC[C@]43C)C12 (stereo partly drawn) [Compound 12]
PC-3 cells; 6 days treatment
  anti-invasive effects in 3D culture (in words): None of these compounds showed significant anti-invasive effects

## C=C(C)[C@@H]1CC[C@]2(CO)CC[C@]3(C)C(CCC4[C@@]5(C)Cc6cnoc6C(C)(C)C5CC[C@]43C)C12 (stereo partly drawn) [Compound 10]
PC-3 cells; 6 days treatment
  anti-invasive effects in 3D culture (in words): negligible effects on the invasive phenotype

## C[C@]12CC[C@H](O)CC1=CC[C@@H]1[C@@H]2CC[C@]2(C)C(c3cccnc3)=CC[C@@H]12 [abiraterone, reference compound]
LAPC-4
  efficacy in 3D LAPC-4 culture (dendrogram clusters): efficacy of all positive controls
PC-3 cells; paclitaxel at 30 and 100 nM
  effect on morphometric measures (area, complexity, dead cells): no noticeable effect

## C=C(C)[C@@H]1CC[C@]2(C(=O)N3CCCCC3)CC[C@]3(C)C(CCC4[C@@]5(C)Cc6nccnc6C(C)(C)C5CC[C@]43C)C12 (stereo partly drawn) [Compound 17]
PC-3 cells; 6 days treatment
  anti-invasive effects in 3D culture (in words): inactive

## C=C(C)[C@@H]1CC[C@]2(C(N)=O)CC[C@]3(C)C(CCC4[C@@]5(C)Cc6cnoc6C(C)(C)C5CC[C@]43C)C12 (stereo partly drawn) [Compound 9]
PC-3 cells; 6 days treatment
  anti-invasive effects in 3D culture (in words): negligible effects on the invasive phenotype

## C=C(C)[C@@H]1CC[C@]2(COC(C)=O)CC[C@]3(C)C(CCC4[C@@]5(C)Cc6cnoc6C(C)(C)C5CC[C@]43C)C12 (stereo partly drawn) [Compound 8]
PC-3 cells; 6 days treatment
  anti-invasive effects in 3D culture (in words): negligible effects on the invasive phenotype

## C=C(C)[C@@H]1CC[C@]2(C=O)CC[C@]3(C)C(CCC4[C@@]5(C)Cc6cnoc6C(C)(C)C5CC[C@]43C)C12 (stereo partly drawn) [Compound 7]
PC-3 cells; 6 days treatment
  anti-invasive effects in 3D culture (in words): negligible effects on the invasive phenotype

## Oc1ccc2ccccc2c1SSc1c(O)ccc2ccccc12 [IPA3, reference compound]
PC3 cells
  morphology and actin cytoskeleton of cells in 2D monolayer: clear rounding

## C=C(C)[C@@H]1CC[C@]2(C(=O)O)CC[C@]3(C)[C@H](CC[C@@H]4[C@@]5(C)CC[C@H](O)C(C)(C)[C@@H]5CC[C@]43C)[C@@H]12 [Compound 1, betulinic acid]
PC3 cells
  morphology and actin cytoskeleton of cells in 2D monolayer: No morphologies and visible effects on the actin cytoskeleton
PC-3 cells; 6 days treatment
  anti-invasive effects in 3D culture (in words): did not show significant anti-invasive effects

## C=C(C)[C@@H]1CC[C@]2(C(=O)N3CCCCC3)CC[C@]3(C)C(CCC4[C@@]5(C)CC[C@H](O)C(C)(C)C5CC[C@]43C)C12 (stereo partly drawn) [Compound 21]
PC-3
  activity in validation (wound healing) in words: inactive

## C=C(C)[C@@H]1CC[C@]2(C(N)=O)CC[C@]3(C)C(CCC4[C@@]5(C)Cc6nccnc6C(C)(C)C5CC[C@]43C)C12 (stereo partly drawn) [Compound 16]
LAPC-4
  efficacy in 3D LAPC-4 culture (dendrogram clusters): most active
PC3 cells
  morphology and actin cytoskeleton of cells in 2D monolayer: No morphologies and visible effects on the actin cytoskeleton
PC-3 cells; 6 days treatment
  concentration at which anti-invasive effects are seen in 3D: 100 nM
  anti-invasive effects in 3D culture (in words): same high level of anti-invasive effects as compound 15

## C=C(C)[C@@H]1CC[C@]2(C#N)CC[C@]3(C)C(CCC4[C@@]5(C)Cc6nccnc6C(C)(C)C5CC[C@]43C)C12 (stereo partly drawn) [Compound 18, Lupa-2,20(29)-dieno[2,3-b]pyrazino-28-nitrile]
PC-3 cells; 6 days treatment
  anti-invasive effects in 3D culture (in words): inactive

## C=C(C)[C@@H]1CC[C@]2(C(=O)N3CCCC3)CC[C@]3(C)C(CCC4[C@@]5(C)CCC(=O)C(C)(C)C5CC[C@]43C)C12 (stereo partly drawn) [Compound 11]
PC-3 cells; 6 days treatment
  anti-invasive effects in 3D culture (in words): None of these compounds showed significant anti-invasive effects

## C=C(C)[C@@H]1CC[C@]2(C(=O)N3CCCCC3)CC[C@]3(C)C(CCC4[C@@]5(C)CCC(=O)C(C)(C)C5CC[C@]43C)C12 (stereo partly drawn) [Compound 13]
PC-3 cells; 6 days treatment
  anti-invasive effects in 3D culture (in words): None of these compounds showed significant anti-invasive effects

## C=C(C)[C@@H]1CC[C@]2(C(=O)N3CCOCC3)CC[C@]3(C)C(CCC4[C@@]5(C)CCC(=O)C(C)(C)C5CC[C@]43C)C12 (stereo partly drawn) [Compound 14]
PC-3 cells; 6 days treatment
  anti-invasive effects in 3D culture (in words): None of these compounds showed significant anti-invasive effects

## C[C@@H](N)[C@H]1CC[C@H](C(=O)Nc2ccncc2)CC1 [Compound Y-27632, reference compound]
PC3 cells
  morphology and actin cytoskeleton of cells in 2D monolayer: elongation
